ChEMBL document CHEMBL5727087, “Inhibitors of lysine gingipain” (2018)

Assay: Inhibition Assay: The specific assay conditions were as follows. Buffer: pH=7.5, 100 mM Tris-HCl, 75 mM NaCl, 2.5 mM CaCl2, 10 mM cysteine, 1% DMSO after all additions. Protein: 0.1 nM Kgp, isolated from culture of Porphyromonas gingivalis, as described in Pike et al. J. Biol. Chem. 1994, 269(1), 406, and Potempa and Nguyen. Current Protocols in Protein Scienc. 2007, 21.20.1-21.20.27. Fluorogenic substrate: 10 uM Z-His-Glu-Lys-MCA. Time=90 minutes. Temperature=37° C. Each compound: 10 concentrations, starting at either 100 uM or 100 nM, with lower concentrations generated by serial 3-fold dilutions. By testing a range of concentrations for each compound, the concentration required to inhibit the activity of lysine gingipain by 50% (the “IC50”) was determined. Under the described assay conditions, signal-to-noise was excellent, and Z factor was greater than 0.6.

`NCCCC[C@H](NC(=O)C1CCCC1)C(=O)COc1c(F)c(F)cc(F)c1F` showed an IC50 of under 1 nM.
